How the values were obtained:
[1] = system: SARS-CoV-2 (hCoV-19/Egypt/NRC-03/2020); conditions: SARS-CoV-2 / VERO-E6
EGFR [2] = target: T1, EGFR (Homo sapiens, UniProt P00533); assay: EGFR Western blot in HCT116; type: cell-based; conditions: for EGFR HCT116 % Inhibition: Western blot at MTT-IC50; for EGFR HCT116 RQ (relative quantification): Western blot at MTT-IC50, control RQ 4.0382
EGFR [3] = target: T1, EGFR; assay: EGFR Western blot in MCF7; type: cell-based; conditions: for EGFR MCF7 % Inhibition: Western blot at MTT-IC50; for EGFR MCF7 RQ (relative quantification): Western blot at MTT-IC50, control RQ 4.226
VEGFR-2 [4] = target: T2, VEGFR-2 (Homo sapiens, UniProt P35968); assay: VEGFR-2 Western blot in HCT116; type: cell-based; conditions: for VEGFR2 HCT116 % Inhibition: Western blot at MTT-IC50; for VEGFR2 HCT116 RQ (relative quantification): Western blot at MTT-IC50, control RQ 3.817
VEGFR-2 [5] = target: T2, VEGFR-2; assay: VEGFR-2 Western blot in MCF7; type: cell-based; conditions: for VEGFR2 MCF7 % Inhibition: Western blot at MTT-IC50; for VEGFR2 MCF7 RQ (relative quantification): Western blot at MTT-IC50, control RQ 3.725
[6] = system: HCT116 (colon) cancer cell line; assay: MTT antiproliferative assay, HCT116; type: cell-based; conditions: for IC50: Homo sapiens, HCT-116, 72 h, read-out: IC50 ± SE, HCT116; for SI (selectivity index), HCT116: IC50 of RPE1 relative to that of HCT116
[7] = system: RPE1 (normal human immortalized retinal pigment epithelial cell line); assay: MTT assay against normal RPE1 cells; type: cell-based; conditions: RPE-1, read-out: IC50 ± SE, RPE1
COX-1 = target: T3, COX-1 (Ovis aries, UniProt P05979); assay: COX-1 inhibitor screening kit; type: biochemical
T3 sequence (P05979 25-600): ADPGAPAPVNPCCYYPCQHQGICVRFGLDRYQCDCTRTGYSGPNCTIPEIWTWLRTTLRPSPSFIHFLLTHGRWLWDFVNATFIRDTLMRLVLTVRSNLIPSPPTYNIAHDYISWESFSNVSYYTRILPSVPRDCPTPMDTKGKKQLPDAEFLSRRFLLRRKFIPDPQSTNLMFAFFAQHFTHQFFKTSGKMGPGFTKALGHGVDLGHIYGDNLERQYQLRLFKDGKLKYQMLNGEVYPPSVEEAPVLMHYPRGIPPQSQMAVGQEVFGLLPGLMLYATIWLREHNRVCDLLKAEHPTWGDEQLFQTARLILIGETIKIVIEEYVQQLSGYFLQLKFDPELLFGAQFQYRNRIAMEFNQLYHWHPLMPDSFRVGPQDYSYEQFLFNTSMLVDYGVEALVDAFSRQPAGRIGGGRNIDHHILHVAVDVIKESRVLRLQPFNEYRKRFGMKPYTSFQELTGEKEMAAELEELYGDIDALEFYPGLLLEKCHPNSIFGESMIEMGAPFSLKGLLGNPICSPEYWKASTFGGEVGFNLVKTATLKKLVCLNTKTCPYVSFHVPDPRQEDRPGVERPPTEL

[8] = system: MCF7 (breast) cancer cell line; assay: MTT antiproliferative assay, MCF7; type: cell-based; conditions: for IC50: Homo sapiens, MCF7, 72 h, read-out: IC50 ± SE, MCF7; for SI (selectivity index), MCF7: IC50 of RPE1 relative to that of MCF7
COX-2 = target: T4, COX-2 (Homo sapiens, UniProt P35354); assay: COX-2 inhibitor screening kit; type: biochemical
T4 sequence (P35354 18-604): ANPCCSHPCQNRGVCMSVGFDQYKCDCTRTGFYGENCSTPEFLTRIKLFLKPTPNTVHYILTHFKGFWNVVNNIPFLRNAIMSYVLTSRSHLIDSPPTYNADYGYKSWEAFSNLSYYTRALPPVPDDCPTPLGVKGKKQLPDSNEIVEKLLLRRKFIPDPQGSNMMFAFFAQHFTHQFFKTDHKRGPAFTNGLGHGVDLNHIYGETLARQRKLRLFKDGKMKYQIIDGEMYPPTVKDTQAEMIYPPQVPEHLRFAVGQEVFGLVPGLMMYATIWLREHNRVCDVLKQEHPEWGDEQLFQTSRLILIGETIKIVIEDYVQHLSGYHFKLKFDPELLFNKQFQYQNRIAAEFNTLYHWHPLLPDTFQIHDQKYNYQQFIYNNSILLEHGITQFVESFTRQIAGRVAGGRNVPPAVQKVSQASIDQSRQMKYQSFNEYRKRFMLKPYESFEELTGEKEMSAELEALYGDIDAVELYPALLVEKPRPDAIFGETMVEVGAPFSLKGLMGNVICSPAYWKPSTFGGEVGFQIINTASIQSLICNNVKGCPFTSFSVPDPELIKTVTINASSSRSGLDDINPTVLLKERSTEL

[9] = system: A431 (squamous skin) cancer cell line; assay: MTT antiproliferative assay, A431; type: cell-based; conditions: for IC50: Homo sapiens, A-431, 72 h, read-out: IC50 ± SE, A431; for SI (selectivity index), A431: IC50 of RPE1 relative to that of A431

T1 sequence (P00533 25-1210): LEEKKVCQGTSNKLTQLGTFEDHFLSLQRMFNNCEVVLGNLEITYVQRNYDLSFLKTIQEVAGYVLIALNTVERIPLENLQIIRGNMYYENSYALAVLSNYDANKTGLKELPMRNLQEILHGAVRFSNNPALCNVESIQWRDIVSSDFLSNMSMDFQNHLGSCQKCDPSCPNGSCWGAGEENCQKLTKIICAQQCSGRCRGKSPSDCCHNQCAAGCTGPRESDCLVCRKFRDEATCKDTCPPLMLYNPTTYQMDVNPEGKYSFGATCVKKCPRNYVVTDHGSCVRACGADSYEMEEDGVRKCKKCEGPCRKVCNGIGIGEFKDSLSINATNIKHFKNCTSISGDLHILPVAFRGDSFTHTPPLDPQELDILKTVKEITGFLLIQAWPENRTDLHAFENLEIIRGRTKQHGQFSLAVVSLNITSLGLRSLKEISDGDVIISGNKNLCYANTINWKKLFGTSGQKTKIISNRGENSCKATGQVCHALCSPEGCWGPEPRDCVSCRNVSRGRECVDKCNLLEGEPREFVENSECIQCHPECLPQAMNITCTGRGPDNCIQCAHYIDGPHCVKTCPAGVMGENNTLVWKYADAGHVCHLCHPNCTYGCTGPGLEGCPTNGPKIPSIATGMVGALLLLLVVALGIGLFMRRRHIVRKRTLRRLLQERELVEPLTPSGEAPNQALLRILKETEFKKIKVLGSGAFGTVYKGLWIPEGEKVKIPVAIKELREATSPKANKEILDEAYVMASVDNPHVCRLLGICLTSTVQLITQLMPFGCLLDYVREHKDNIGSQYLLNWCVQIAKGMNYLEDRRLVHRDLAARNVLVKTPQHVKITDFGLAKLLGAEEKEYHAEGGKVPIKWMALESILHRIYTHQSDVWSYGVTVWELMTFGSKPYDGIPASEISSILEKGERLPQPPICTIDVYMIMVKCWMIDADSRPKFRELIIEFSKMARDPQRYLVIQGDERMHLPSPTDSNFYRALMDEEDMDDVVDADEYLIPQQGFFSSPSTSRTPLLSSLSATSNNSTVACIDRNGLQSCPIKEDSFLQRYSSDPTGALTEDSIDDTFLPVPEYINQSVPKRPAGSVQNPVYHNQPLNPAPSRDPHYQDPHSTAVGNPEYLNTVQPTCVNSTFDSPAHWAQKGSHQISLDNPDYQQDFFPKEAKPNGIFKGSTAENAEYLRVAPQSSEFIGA
T2 sequence (P35968 20-1356): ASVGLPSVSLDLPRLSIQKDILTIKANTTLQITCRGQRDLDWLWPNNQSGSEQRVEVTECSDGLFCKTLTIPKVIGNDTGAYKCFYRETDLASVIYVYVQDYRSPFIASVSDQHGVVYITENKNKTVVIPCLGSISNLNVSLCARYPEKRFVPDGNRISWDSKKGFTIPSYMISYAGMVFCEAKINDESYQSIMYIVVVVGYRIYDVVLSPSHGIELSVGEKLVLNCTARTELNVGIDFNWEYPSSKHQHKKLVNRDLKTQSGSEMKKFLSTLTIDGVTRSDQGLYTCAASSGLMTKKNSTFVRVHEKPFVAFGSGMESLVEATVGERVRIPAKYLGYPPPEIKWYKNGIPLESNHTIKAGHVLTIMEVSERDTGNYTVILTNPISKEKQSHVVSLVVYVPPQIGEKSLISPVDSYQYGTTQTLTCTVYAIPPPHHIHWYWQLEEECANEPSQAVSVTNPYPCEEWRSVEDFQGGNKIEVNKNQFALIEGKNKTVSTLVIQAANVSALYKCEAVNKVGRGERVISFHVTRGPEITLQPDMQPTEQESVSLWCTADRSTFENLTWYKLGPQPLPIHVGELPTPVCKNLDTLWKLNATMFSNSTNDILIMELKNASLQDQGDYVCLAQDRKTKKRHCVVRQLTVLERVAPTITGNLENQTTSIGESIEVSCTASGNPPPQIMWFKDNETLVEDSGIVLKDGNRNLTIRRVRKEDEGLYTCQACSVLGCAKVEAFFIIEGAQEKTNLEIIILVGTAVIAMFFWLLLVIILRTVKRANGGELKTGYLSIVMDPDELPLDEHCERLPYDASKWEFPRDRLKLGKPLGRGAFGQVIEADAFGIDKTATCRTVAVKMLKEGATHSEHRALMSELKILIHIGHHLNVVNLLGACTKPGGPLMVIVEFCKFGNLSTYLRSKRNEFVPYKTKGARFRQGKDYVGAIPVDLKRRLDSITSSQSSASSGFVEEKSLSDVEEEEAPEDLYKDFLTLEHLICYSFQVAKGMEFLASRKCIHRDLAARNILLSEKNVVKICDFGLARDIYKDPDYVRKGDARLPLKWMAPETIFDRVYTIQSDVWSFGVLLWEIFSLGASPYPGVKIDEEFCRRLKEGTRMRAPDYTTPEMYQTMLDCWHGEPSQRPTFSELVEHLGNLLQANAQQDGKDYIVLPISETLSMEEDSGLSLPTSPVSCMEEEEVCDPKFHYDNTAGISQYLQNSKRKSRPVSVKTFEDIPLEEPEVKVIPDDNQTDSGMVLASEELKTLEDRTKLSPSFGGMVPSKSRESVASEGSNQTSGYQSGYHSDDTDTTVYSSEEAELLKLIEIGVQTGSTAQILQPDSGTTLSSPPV

Structure (SMILES)	SI = CC50/IC50 [1]	EGFR HCT116 % Inhibition (EGFR [2]) [%]	EGFR MCF7 % Inhibition (EGFR [3]) [%]	VEGFR2 HCT116 % Inhibition (VEGFR-2 [4]) [%]	VEGFR2 MCF7 % Inhibition (VEGFR-2 [5]) [%]	EGFR HCT116 RQ (relative quantification) (EGFR [2])	IC50 [6] [µM]	SI (selectivity index), HCT116 [6]	IC50 [7] [µM]	IC50 (COX-1) [µM]	IC50 [8] [µM]	SI (selectivity index), MCF7 [8]	EGFR MCF7 RQ (relative quantification) (EGFR [3])	VEGFR2 HCT116 RQ (relative quantification) (VEGFR-2 [4])	IC50 (COX-2) [µM]	SI = IC50(COX-1)/IC50(COX-2) (COX-2)	IC50 [9] [µM]	SI (selectivity index), A431 [9]	VEGFR2 MCF7 RQ (relative quantification) (VEGFR-2 [5])
CCN(CC)CCCC(C)Nc1ccnc2cc(Cl)ccc12 (stereo not shown) [Chloroquine, reference compound]	15.1	–	–	–	–	–	–	–	–	–	–	–	–	–	–	–	–	–	–
O=c1[nH]cc(F)c(=O)[nH]1 [Compound 5-FU, 5-fluorouracil, reference compound]	–	81.2	85.8	75.4	67.2	–	–	–	–	–	–	–	–	–	–	–	–	–	–
CC(=O)Oc1ccccc1C(=O)N1C/C(=C\c2ccccc2)C(=O)/C(=C/c2ccccc2)C1 [Compound 5a, 2-[3,5-Di((E)-benzylidene)-4-oxopiperidine-1-carbonyl]phenyl acetate]	18.5	69.3	90.3	67.5	64.6	1.24	4.72 ± 0.42	2.25	10.6 ± 1.04	0.249	4.74 ± 0.38	2.25	0.41	1.24	1.55	0.161	4.49 ± 0.41	2.4	1.32
CC(=O)Oc1ccccc1C(=O)N1C/C(=C\c2ccc(F)cc2)C(=O)/C(=C/c2ccc(F)cc2)C1 [Compound 5b, 2-[3,5-Bis((E)-4-fluorobenzylidene)-4-oxopiperidine-1-carbonyl]phenyl acetate]	22.7	72.8	83.7	70.9	57.0	1.1	5.1 ± 0.51	1.63	8.3 ± 0.71	0.146	5.76 ± 0.47	1.44	0.69	1.11	0.442	0.330	2.12 ± 0.19	3.9	1.6
CC(=O)Oc1ccccc1C(=O)N1C/C(=C\c2ccc(Br)cc2)C(=O)/C(=C/c2ccc(Br)cc2)C1 [Compound 5d, 2-[3,5-Bis((E)-4-bromobenzylidene)-4-oxopiperidine-1-carbonyl]phenyl acetate]	54.7	65.9	64.0	60.7	48.7	1.377	3.6 ± 0.29	2.69	9.68 ± 0.57	0.134	4.58 ± 0.39	2.11	1.52	1.5	1.11	0.121	0.986 ± 0.08	9.8	1.91
CC(=O)Oc1ccccc1C(=O)N1C/C(=C\c2ccc(C)cc2)C(=O)/C(=C/c2ccc(C)cc2)C1 [Compound 5e, 2-[3,5-Bis((E)-4-methylbenzylidene)-4-oxopiperidine-1-carbonyl]phenyl acetate]	37.4	58.8	59.6	42.1	40.9	1.664	2.56 ± 0.18	3.87	9.89 ± 0.75	0.249	6 ± 0.5	1.65	1.707	2.209	1.56	0.160	0.639 ± 0.07	15.5	2.202
CCN(CCO)CCCC(C)Nc1ccnc2cc(Cl)ccc12 (stereo not shown) [Hydroxychloroquine, reference compound]	9.7	–	–	–	–	–	–	–	–	–	–	–	–	–	–	–	–	–	–
